Consider 19 molecules from patent US8217176B2, “Fused heterocyclic derivative and use thereof” (Takeda Pharmaceutical Company Limited, priority 2008, dated 2012).

pIC50: −log10 of the molar value. Structures can show the parent of a compound that is named as a salt. Where only a bound is given, the exact number is not on record here.

The test system of the assay is NIH-3T3/Gli reporter cells. Kind of assay: Evaluation of compound: Shh-N-induced luciferase activity in NIH-3T3/Gli reporter cells (Smo inhibitory action). The class given is cell-based. The note with it: 48 hr; for inhibition at 1 µM: NIH3T3, 1 μM compound, mouse Shh-N end fragment supernatant, read-out: inhibition rate (%) at 1 μM; for pIC50: NIH3T3, mouse Shh-N end fragment supernatant, read-out: IC50 value (compound concentration necessary for achieving 50% of the maximum value of inhibition rate). Here is the method: HEK293 cells were grown in D-MEM medium (Invitrogen) containing 10% fetal bovine serum in a 10 cm dish and pcDNA3.1/mShh-N was introduced into the cells using FuGENE6 (Roche Applied Science). Thereafter, the HEK293 cells were cultured in a carbon dioxide gas incubator at 37° C. for 24 hours, and the medium was exchanged with D-MEM medium (Invitrogen) containing 2% fetal bovine serum. After culturing for 48 hr, a culture supernatant containing recombinant type mouse Shh-N end fragment was obtained by filtration using a filter ([…]).
Using D-MEM (Invitrogen) containing 10% fetal bovine serum, expression plasmid pcDNA3.1 and Gli reporter plasmid (pGL3/δ-cry promoter, 8×Gli binding site) produced by the method of Experimental Example 1 were introduced into NIH-3T3 cells grown in a 10 cm dish by the use of FuGENE6 (Roche Applied Science).
After culture for 24 hr, the cells were recovered, suspended in D-MEM medium containing 10% fetal bovine serum and supplemented with Geneticin (Life Technologies Oriental, Inc.) to a final concentration of 500 μg/ml, diluted to 10^4 cells/ml, plated on a 96 well plate, and cultured in a carbon dioxide gas incubator at 37° C. to give Geneticin resistant transformed cell line.
The obtained transformed cell line was cultured in a 96 well plate, mouse Shh-N end fragment obtained in Experimental Example 3 was added, and NIH-3T3/Gli reporter cell, which is a cell line capable of induction of luciferase expression, was selected.
NIH-3T3/Gli reporter cells cultured in D-MEM (Invitrogen) containing 10% fetal bovine serum were plated in a 96 well white plate at 1×10^4 cells/well, and cultured overnight in a carbon dioxide gas incubator at 37° C. The medium was removed, a compound (50 μl) and culture supernatant of mouse Shh-N end fragment-expressing HEK293 (D-MEM medium containing 2% fetal bovine serum, 50 μl) were added, and the cells were cultured for 48 hr in a carbon dioxide gas incubator at 37° C. Bright-Glo (Promega, 50 μl) was added, and the mixture was stirred, after which luciferase activity was measured by EnVision (PerkinElmer). The inhibition rate was calculated based on the luciferase activity of the control without addition of the compound as 100. The concentration of the compound and the inhibition rate were analyzed by PRISM3.00 (software of GraphPad), based on which the IC50 value (compound concentration necessary for achieving 50% of the maximum value of inhibition rate) of the compound was calculated.

What is called inhibition is the change of the read-out against control, counted positive when it falls.

Turning to `CCN(C(C)=O)C1CCN(C(=O)c2sc3c(c2OC)c(=O)n(CC(=O)c2ccccc2)c2ccccc32)C1` (centres unmarked) [Example 2, N-ethyl-N-(1-{[3-methoxy-4-oxo-5-(2-oxo-2-phenylethyl)-4,5-dihydrothieno[3,2-c]quinolin-2-yl]carbonyl}pyrrolidin-3-yl)acetamide], the inhibition at 1 µM was determined as 100% and the pIC50 is no less than 6.00.
With `CCN(CC)CCN(C)C(=O)c1sc2c(c1OC)c(=O)n(Cc1ccccn1)c1ccccc21` [Example 3, N-[2-(diethylamino)ethyl]-3-methoxy-N-methyl-4-oxo-5-(pyridin-2-ylmethyl)-4,5-dihydrothieno[3,2-c]quinoline-2-carboxamide ditrifluoroacetate], the inhibition at 1 µM came out at 100% and the pIC50 is no less than 6.00.
For `COc1c(C(=O)NCCN2CCCCC2)sc2c1c(=O)n(CC(=O)c1ccccc1)c1ccccc21` [Example 9, 3-methoxy-4-oxo-5-(2-oxo-2-phenylethyl)-N-(2-piperidin-1-ylethyl)-4,5-dihydrothieno[3,2-c]quinoline-2-carboxamide trifluoroacetate] the same measures were 100% and no less than 6.00.
The matching figures for `CCN(CC)CCCC(C)NC(=O)c1sc2c(c1OC)c(=O)n(CC(=O)c1ccccc1)c1ccccc21` (centres unmarked) [Example 13, N-[4-(diethylamino)-1-methylbutyl]-3-methoxy-4-oxo-5-(2-oxo-2-phenylethyl)-4,5-dihydrothieno[3,2-c]quinoline-2-carboxamide trifluoroacetate]: 100% and no less than 6.00.
For `COc1c(C(=O)N(C)C2CCN(C)C2)sc2c1c(=O)n(CC(=O)c1ccccc1)c1ccccc21` (centres unmarked) [Example 16, 3-methoxy-N-methyl-N-(1-methylpyrrolidin-3-yl)-4-oxo-5-(2-oxo-2-phenylethyl)-4,5-dihydrothieno[3,2-c]quinoline-2-carboxamide trifluoroacetate] the same measures were 100% and no less than 6.00.
`COc1c(C(=O)N2CCCN(C)CC2)sc2c1c(=O)n(CC(=O)c1ccccc1)c1ccccc21` [Example 17, 3-methoxy-2-[(4-methyl-1,4-diazepan-1-yl)carbonyl]-5-(2-oxo-2-phenylethyl)thieno[3,2-c]quinolin-4(5H)-one trifluoroacetate]: the inhibition at 1 µM was 99% and the pIC50 is no less than 6.00.
For `COc1c(C(=O)N(CCC#N)Cc2cccnc2)sc2c1c(=O)n(CC(=O)c1ccccc1)c1ccccc21` [Example 22, N-(2-cyanoethyl)-3-methoxy-4-oxo-5-(2-oxo-2-phenylethyl)-N-(pyridin-3-ylmethyl)-4,5-dihydrothieno[3,2-c]quinoline-2-carboxamide trifluoroacetate] the same measures were 91% and no less than 6.00.
The matching figures for `COc1c(C(=O)N(C)CC(=O)N2CCCC2)sc2c1c(=O)n(CC(=O)c1ccccc1)c1ccccc21` [Example 27, 3-methoxy-N-methyl-4-oxo-5-(2-oxo-2-phenylethyl)-N-(2-oxo-2-pyrrolidin-1-ylethyl)-4,5-dihydrothieno[3,2-c]quinoline-2-carboxamide]: 100% and no less than 6.00.
For `COc1c(C(=O)NCCO)sc2c1c(=O)n(CC(=O)c1ccccc1)c1ccccc21` [Example 32, N-(2-hydroxyethyl)-3-methoxy-4-oxo-5-(2-oxo-2-phenylethyl)-4,5-dihydrothieno[3,2-c]quinoline-2-carboxamide] the same measures were 95% and no less than 6.00.
In the case of `CCN(CC)CCN(C)C(=O)c1sc2c(c1OC)c(=O)n(CC1CC1)c1ccccc21` [Example 41, 5-(cyclopropylmethyl)-N-[2-(diethylamino)ethyl]-3-methoxy-N-methyl-4-oxo-4,5-dihydrothieno[3,2-c]quinoline-2-carboxamide], the inhibition at 1 µM came out at 100% and the pIC50 is no less than 6.00.
For `CCOc1c(C(=O)NCCN2CCCC2)sc2c1c(=O)n(CC(=O)c1ccccc1)c1ccccc21` [Example 43, 3-ethoxy-4-oxo-5-(2-oxo-2-phenylethyl)-N-(2-pyrrolidin-1-ylethyl)-4,5-dihydrothieno[3,2-c]quinoline-2-carboxamide] the same measures were 100% and no less than 6.00.
As to `CCOc1c(C(=O)N(C)CCN(CC)CC)sc2c1c(=O)n(CC(=O)c1ccccc1)c1ccccc21` [Example 45, N-[2-(diethylamino)ethyl]-3-ethoxy-N-methyl-4-oxo-5-(2-oxo-2-phenylethyl)-4,5-dihydrothieno[3,2-c]quinoline-2-carboxamide hydrochloride], the inhibition at 1 µM came out at 100% and the pIC50 was no less than 6.00.
The matching figures for `CCN(CC)CCN(C)C(=O)c1sc2c(c1OC)c(=O)n(Cc1ccc(OC)cc1)c1ccccc21` [Example 48, N-[2-(diethylamino)ethyl]-3-methoxy-5-(4-methoxybenzyl)-N-methyl-4-oxo-4,5-dihydrothieno[3,2-c] quinoline-2-carboxamide hydrochloride]: 10% and no less than 6.00.
The matching figures for `CCN(CC)CCN(C)C(=O)c1sc2c(c1OC)c(=O)n(CC(=O)C(C)(C)C)c1ccccc21` [Example 50, N-[2-(diethylamino)ethyl]-5-(3,3-dimethyl-2-oxobutyl)-3-methoxy-N-methyl-4-oxo-4,5-dihydrothieno[3,2-c]quinoline-2-carboxamide]: 100% and no less than 6.00.
The matching figures for `CCN(CC)CCN(C)C(=O)c1sc2c(c1OC)c(=O)n(CCOc1ccccc1)c1ccccc21` [Example 51, N-[2-(diethylamino)ethyl]-3-methoxy-N-methyl-4-oxo-5-(2-phenoxyethyl)-4,5-dihydrothieno[3,2-c]quinoline-2-carboxamide]: 100% and no less than 6.00.
With `CCN(CC)CCN(C)C(=O)c1sc2c(c1OC)c(=O)n(CC(=O)Nc1ccccc1)c1ccccc21` [Example 52, N-[2-(diethylamino)ethyl]-3-methoxy-N-methyl-4-oxo-5-[2-oxo-2-(phenylamino)ethyl]-4,5-dihydrothieno[3,2-c]quinoline-2-carboxamide hydrochloride], the inhibition at 1 µM came to 95% and the pIC50 is no less than 6.00.
The matching figures for `CCOC(=O)Cn1c(=O)c2c(OC)c(C(=O)N(C)CCN(CC)CC)sc2c2ccccc21` [Example 53, ethyl [2-{[2-(diethylamino)ethyl](methyl)carbamoyl}-3-methoxy-4-oxothieno[3,2-c]quinolin-5(4H)-yl]acetate]: 95% and no less than 6.00.
In the case of `CCN(CC)CCN(C)C(=O)c1c(OC)c2c(=O)n(CC(=O)c3ccccc3)c3ccccc3c2n1C` [Example 56, N-[2-(diethylamino)ethyl]-3-methoxy-N,1-dimethyl-4-oxo-5-(2-oxo-2-phenylethyl)-4,5-dihydro-1H-pyrrolo[3,2-c]quinoline-2-carboxamide hydrochloride], the inhibition at 1 µM is 100% and the pIC50 was no less than 6.00.
For the molecule `COc1c(C(=O)NCCN2CCC(O)CC2)n(C)c2c1c(=O)n(CC(=O)c1ccccc1)c1ccccc21` [Example 69, N-[2-(4-hydroxypiperidin-1-yl)ethyl]-3-methoxy-1-methyl-4-oxo-5-(2-oxo-2-phenylethyl)-4,5-dihydro-1H-pyrrolo[3,2-c]quinoline-2-carboxamide], the inhibition at 1 µM stood at 100% and the pIC50 was no less than 6.00.
